Results from US10426168B2, “Agent for controlling noxious arthropods” (Sumitomo Chemical Company, Limited, priority 2015, dated 2019).

test system: common house mosquitoes (Culex pipens pallens) at the last instar larval stages; assay: Test Example 2: mortality of common house mosquito larvae in treated water; format: in vivo; details: 24 h, 3.5 ppm in water, 30 last instar larvae, after 1 day
Protocol: Each of the formulations that were prepared in Formulation Example 15 containing Present compounds (1), (2), (3) and (4) was diluted with water so as to make a concentration of each of the compound 500 ppm, to obtain a diluted solution containing Present compounds (1), (2), (3) and (4), respectively. The above-mentioned diluted solutions were added to 100 mL of ion-exchanged water (Concentrations of Present compounds were 3.5 ppm). Thirty (30) heads of common house mosquitoes (Culex pipens pallens) at the last instar larval stages were released into the resulting diluted solutions having the concentration of 3.5 ppm, and after 1 day, the life and death of the insects were examined, and the mortality of insects was calculated by the following equation. Mortality (%)=(Number of the dead insects/Number of test insects)×100

Structure (SMILES)	mortality at 3.5 ppm [%]
CC(C)(N)CNC(=O)c1cc(COCc2ccccc2)on1 [(1)]	≥ 91
CC(C)(N)CNC(=O)c1cc(COCc2ccc3ccccc3c2)on1 [(2)]	≥ 91
CCCCc1cc(C(=O)NCC(C)(C)N)no1 [(3)]	≥ 91
CCCCc1cc(C(=O)NC(C)(C)C(C)(C)N)no1 [(4)]	≥ 91
